Test results taken from ChEMBL document CHEMBL1201862, “PubChem BioAssay data set” (2004).
Calls of active or inactive are those of the source. Rule as the data show it, for most assays here: actives have a measured EC50 and inactives only a lower limit.

Experiments:
[1] = molecular target: NACHT, LRR and PYD domains-containing protein 1 (Homo sapiens, UniProt Q9C000); assay: NALP1 inhibitors in yeast, dose response, luminescent (AID 488860); type: functional
Saccharomyces cerevisiae = assay: S. cerevisiae Caspase-1/ASC signal blockers IC50, NALP1 inhibitor project selectivity test (AID 488863); type: functional, organism-based
[2] = molecular target: T1, Ubiquitin-conjugating enzyme E2 N (Homo sapiens, UniProt P61088); type: functional;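 also: Dose-response confirmation in a TR-FRET assay detecting UBC13-driven polyubiquitin chain formation, inhibition measured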
T1 sequence (P61088 whole entry): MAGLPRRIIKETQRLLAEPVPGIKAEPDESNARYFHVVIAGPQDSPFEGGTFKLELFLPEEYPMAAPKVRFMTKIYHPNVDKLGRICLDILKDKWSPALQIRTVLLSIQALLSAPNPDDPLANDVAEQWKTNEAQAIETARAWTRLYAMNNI

[3] = DRD fibroblast viability loss – cell-based, non-viral oncogenic, luminescence, dose response (AID 1934); type: functional; conditions: Homo sapiens
[4] = Luminescence Cell-Based Dose Response HTS to Identify Inhibitors of 5'UTR Stem-Loop Driven Prion Protein mRNA Translation in H4 Neuroglioblastoma Cells. [Related pubchem assays: 1827 (Project Summary), 1813 (Primary HTS)]; type: functional
[5] = luciferase reporter signal suppression in cells – H4 neuroglioma cells, luminescence, dose response (AID 1990); type: functional, cell-based
[6] = alpha-synuclein stem-loop luciferase translation blockers – H4 neuroglioma cells, luminescence, confirmation (AID 1988); type: functional, cell-based
[7] = alpha-synuclein stem-loop translation blockers – luminescence, H4 neuroglioblastoma cells, dose confirmation, confirmation (AID 2454); type: functional, cell-based;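 also: H4 neuroglioblastoma cells carrying an alpha-synuclein 5'UTR luciferase reporter; potency for inhibition of the luciferase signal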
[8] = luciferase reporter signal reduction – luminescence, H4-C neuroglioblastoma cells, dose response (AID 2458); type: functional, cell-based;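 also: H4 neuroglioblastoma cells stably carrying a luciferase reporter gene fusion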
BJ [9] = assay: BJ-TERT fibroblast viability loss – cell-based, RAS-independent, luminescence, dose response (AID 1933); type: functional; conditions: Homo sapiens
BJ [10] = assay: cells; type: functional, cell-based; conditions: Homo sapiens
cells = type: functional, cell-based
J774.A1 = assay: Confirmation of image-based Screening Assay for Inhibitors of Phagocytosis. [Related pubchem assays (depositor defined):AID1029, AID1643]; type: functional, cell-based; conditions: Mus musculus
BJ [11] = assay: BJ-TERT-LT-ST fibroblast viability loss – cell-based, RAS-independent, luminescence, dose response (AID 1935); type: functional; conditions: Homo sapiens;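 also: BJ fibroblasts immortalized with TERT plus LT and ST oncogenes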
[12] = molecular target: Female germline-specific tumor suppressor gld-1 (Caenorhabditis elegans, UniProt Q17339); assay: blockers of GLD-1/TGE RNA complex formation – biochemical, fluorescence polarization, C. elegans, dose response (AID 2802);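 also: fluorescence polarization of labeled TGE RNA bound by purified gld-1 protein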
Protein Rev = Protein Rev (Human immunodeficiency virus type 1 group M subtype B (isolate HXB2)(HIV-1), UniProt P04618); assay: blockers of HIV Rev/RRE RNA complex – biochemical, fluorescence polarization, HIV-1, dose response (AID 434976); set-up: species or system Human immunodeficiency virus 1
[13] = molecular target: T2, Short transient receptor potential channel 4 (Mus musculus, UniProt Q9QUQ5); assay: calcium entry via TRPC4 opening agents – cell-based, HEK293 TRPC4/mu-opioid, Fluo-4 calcium, dose response (AID 434937); type: functional
T2 sequence (Q9QUQ5 whole entry): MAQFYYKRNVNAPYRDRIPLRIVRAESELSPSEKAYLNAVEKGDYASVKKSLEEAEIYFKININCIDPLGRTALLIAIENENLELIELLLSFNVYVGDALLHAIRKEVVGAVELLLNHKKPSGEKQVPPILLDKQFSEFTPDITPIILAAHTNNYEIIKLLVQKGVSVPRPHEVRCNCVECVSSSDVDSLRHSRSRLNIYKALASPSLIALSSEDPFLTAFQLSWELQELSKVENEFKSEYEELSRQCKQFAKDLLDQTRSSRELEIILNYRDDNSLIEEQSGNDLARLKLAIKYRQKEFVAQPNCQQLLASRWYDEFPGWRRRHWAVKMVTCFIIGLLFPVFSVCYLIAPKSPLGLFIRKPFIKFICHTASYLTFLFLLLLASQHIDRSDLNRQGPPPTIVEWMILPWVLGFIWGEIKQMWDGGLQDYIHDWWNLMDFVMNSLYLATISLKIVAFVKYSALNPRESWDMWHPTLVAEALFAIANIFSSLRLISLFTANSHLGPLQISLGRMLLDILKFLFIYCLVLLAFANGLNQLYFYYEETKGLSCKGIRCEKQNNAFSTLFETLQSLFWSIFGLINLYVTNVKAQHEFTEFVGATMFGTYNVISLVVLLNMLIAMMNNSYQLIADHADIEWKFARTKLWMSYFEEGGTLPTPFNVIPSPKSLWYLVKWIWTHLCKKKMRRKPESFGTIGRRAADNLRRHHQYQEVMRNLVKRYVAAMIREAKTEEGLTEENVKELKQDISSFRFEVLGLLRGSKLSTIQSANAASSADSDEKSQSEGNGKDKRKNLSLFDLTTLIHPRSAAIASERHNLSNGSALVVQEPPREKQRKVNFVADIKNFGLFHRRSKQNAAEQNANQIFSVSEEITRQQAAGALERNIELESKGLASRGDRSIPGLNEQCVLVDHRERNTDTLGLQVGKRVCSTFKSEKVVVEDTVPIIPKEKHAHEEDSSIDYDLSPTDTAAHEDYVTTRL

Nonstructural protein 1 = Nonstructural protein 1 (Influenza A virus, UniProt Q194T2); type: functional, Influenza A virus (A/California/07/2009(H1N1))
Chain of Nonstructural protein 1 (Q194T2 whole entry): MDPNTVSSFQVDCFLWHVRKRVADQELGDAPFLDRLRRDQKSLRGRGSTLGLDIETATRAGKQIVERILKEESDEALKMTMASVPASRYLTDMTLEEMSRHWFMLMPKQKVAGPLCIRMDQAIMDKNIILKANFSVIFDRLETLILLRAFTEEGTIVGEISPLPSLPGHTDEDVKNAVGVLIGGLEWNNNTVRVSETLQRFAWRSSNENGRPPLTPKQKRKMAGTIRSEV

Chain of NACHT, LRR and PYD domains-containing protein 1 (Q9C000 1-1212 limits assumed): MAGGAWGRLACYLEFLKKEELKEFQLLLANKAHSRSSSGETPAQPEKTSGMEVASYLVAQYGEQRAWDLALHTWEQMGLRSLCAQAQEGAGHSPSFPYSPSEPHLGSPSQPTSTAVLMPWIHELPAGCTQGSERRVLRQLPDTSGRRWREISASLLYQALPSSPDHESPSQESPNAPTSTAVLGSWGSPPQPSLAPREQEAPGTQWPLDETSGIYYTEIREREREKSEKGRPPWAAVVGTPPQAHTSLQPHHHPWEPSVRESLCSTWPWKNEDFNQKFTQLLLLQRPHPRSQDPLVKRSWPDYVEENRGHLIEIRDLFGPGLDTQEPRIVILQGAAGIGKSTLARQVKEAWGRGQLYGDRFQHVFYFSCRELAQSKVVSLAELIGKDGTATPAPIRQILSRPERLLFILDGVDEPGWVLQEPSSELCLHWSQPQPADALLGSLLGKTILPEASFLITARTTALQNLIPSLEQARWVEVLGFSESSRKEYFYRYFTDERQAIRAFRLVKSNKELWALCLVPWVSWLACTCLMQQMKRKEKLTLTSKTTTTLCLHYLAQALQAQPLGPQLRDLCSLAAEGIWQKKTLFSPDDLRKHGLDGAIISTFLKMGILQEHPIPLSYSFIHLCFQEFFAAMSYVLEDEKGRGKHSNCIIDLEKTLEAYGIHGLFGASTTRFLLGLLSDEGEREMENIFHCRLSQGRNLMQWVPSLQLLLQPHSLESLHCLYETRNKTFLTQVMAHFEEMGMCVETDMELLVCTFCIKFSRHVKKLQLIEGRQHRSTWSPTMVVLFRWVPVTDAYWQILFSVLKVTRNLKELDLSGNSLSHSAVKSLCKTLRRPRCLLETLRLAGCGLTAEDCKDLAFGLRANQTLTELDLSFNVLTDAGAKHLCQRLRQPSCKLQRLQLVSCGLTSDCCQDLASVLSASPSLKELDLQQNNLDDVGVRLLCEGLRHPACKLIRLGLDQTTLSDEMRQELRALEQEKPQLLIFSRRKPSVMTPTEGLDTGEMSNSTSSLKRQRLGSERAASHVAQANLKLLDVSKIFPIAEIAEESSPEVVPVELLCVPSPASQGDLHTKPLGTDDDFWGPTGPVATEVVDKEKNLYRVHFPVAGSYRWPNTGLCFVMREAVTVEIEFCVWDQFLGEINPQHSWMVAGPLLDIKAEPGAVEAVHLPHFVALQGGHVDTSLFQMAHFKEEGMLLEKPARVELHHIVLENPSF
Chain of NACHT, LRR and PYD domains-containing protein 1 (Q9C000 1213-1473 limits assumed): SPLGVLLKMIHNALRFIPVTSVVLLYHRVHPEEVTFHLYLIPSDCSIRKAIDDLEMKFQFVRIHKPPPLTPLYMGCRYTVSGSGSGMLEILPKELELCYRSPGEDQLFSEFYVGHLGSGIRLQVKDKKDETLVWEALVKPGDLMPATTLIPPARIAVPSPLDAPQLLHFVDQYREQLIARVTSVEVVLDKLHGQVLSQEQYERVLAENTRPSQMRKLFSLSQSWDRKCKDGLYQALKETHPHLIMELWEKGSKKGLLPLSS
Chain of Female germline-specific tumor suppressor gld-1 (Q17339 whole entry): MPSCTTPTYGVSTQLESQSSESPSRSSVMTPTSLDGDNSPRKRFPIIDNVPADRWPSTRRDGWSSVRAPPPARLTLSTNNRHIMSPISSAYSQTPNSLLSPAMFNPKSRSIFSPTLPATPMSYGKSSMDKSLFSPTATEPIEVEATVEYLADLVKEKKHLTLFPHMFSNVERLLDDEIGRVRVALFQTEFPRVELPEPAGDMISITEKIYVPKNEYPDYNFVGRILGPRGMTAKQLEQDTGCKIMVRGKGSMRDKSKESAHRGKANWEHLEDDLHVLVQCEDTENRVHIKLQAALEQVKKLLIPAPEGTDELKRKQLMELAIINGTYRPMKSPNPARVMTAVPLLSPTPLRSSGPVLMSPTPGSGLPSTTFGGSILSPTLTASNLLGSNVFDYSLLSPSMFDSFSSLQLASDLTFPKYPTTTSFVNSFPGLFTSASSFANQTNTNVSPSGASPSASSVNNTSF
Chain of Protein Rev (P04618 whole entry): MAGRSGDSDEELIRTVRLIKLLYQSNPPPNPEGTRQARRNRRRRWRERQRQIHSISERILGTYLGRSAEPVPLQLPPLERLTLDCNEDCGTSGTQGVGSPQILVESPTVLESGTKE

## Cc1ccc2nc(N(CCCN(C)C)C(=O)c3sc4ccccc4c3Cl)sc2c1
[1]
  IC50: 16.9 µM (active)
Saccharomyces cerevisiae
  IC50: 6.52 µM (active)
[2]
  IC50: > 20 µM (inactive)

## COC(=O)Nc1nc(-c2ccccc2)c(C(=O)c2ccccc2)s1
[3]
  EC50: 1.04 µM (active)
[4]
  EC50: < 0.1 µM (active)
[5]
  EC50: 1.73 µM (active)
[6]
  EC50: < 0.1 µM (active)
[7]
  EC50: 1.36 µM (active)
[8]
  EC50: 1.04 µM (active)
BJ [9]
  EC50: 0.676 µM (active)
BJ [10]
  EC50: 1.56 µM (active)
cells
  EC50: 1.19 µM (active)
J774.A1
  IC50: > 25 µM (inactive)
BJ [11]
  EC50: 0.479 µM (active)

## Cc1ccc(N2CCN(c3ccc(NCc4nc5ccccc5n4C)cc3)CC2)cc1
[12]
  IC50: > 2.21 µM (active)
Protein Rev
  IC50: 19.6 µM (not active)
[13]
  EC50: 1.06 µM (active)
Nonstructural protein 1
  IC50: 75.6 µM (active)
